Biological target: T1, LXRβ (Homo sapiens, UniProt P55055)
T1 construct: Co-transfection expression plasmids, comprising full-length LXRα (pCMX-h LXRα or LXRβ (pCMX-hLXRβ)); expressed in transfected cells; host or cells: CV-1 African green monkey kidney cells, transient transfection with pCMX-hLXRβ
T1 sequence (P55055 1-460): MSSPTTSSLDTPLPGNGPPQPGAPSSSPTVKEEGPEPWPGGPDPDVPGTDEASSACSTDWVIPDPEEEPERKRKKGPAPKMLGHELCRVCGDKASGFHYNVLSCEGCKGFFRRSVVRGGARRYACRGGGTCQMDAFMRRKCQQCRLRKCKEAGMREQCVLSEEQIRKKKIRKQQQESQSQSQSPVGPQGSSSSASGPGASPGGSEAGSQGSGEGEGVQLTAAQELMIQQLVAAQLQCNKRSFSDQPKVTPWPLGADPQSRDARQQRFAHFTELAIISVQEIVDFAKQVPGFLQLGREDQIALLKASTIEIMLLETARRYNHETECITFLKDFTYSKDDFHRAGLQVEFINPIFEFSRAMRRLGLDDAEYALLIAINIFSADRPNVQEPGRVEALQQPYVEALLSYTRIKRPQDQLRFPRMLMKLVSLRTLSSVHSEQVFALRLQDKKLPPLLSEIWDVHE
T1 sequence (P19793 1-462 partner): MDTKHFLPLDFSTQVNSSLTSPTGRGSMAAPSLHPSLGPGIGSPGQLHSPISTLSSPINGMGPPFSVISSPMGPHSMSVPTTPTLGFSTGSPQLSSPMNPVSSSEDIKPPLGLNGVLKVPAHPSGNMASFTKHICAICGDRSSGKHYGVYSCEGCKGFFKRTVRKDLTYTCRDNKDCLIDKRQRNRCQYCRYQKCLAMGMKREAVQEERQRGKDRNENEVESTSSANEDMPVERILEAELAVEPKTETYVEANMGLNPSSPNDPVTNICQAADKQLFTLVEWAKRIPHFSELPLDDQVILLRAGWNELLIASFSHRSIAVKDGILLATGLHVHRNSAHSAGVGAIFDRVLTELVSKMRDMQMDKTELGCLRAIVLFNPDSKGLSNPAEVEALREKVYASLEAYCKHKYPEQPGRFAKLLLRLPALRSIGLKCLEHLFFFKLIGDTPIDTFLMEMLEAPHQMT
Assay: LXR/LXRE co-transfection assay (luciferase reporter) in CV-1 cells, LXRβ
Format: cell-based
Conditions: for EC50: CV-1 cells transfected with pCMX-hLXRβ and LXREx1-Tk-Luciferase, 20 hours incubation, read-out: LXRbeta agonism EC50; for Emax: CV-1 cells, relative to maximum response of high control N-(3-((4-fluorophenyl)-(naphthalene-2-sulfonyl)amino)propyl)-2,2-dimethylpropionamide, read-out: LXRbeta % EFFICACY
In short: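 CV-1 cells transiently co-transfected with full-length human LXRβ, LXRE-Tk-luciferase reporter and β-galactosidase control, then exposed to compound (≤0.5% DMSO) for 20 h at 37 °C before luminescence read. EC50 from 10-point, half-log dose curves; efficacy relative to the sulfonamide high control, means of 2–3 experiments.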

Structure (SMILES)	EC50	Emax
Cc1nc(-c2cc(-c3cccc(S(C)(=O)=O)c3)ccc2-n2nc(C(F)(F)F)cc2C)c(-c2ccc(OC(F)(F)F)cc2)o1 [Example 385, 2-methyl-4-(4-(5-methyl-3-(trifluoromethyl)-1H-pyrazol-1-yl)-3′-(methylsulfonyl)biphenyl-3-yl)-5-(4-(trifluoromethoxy)phenyl) oxazole]	42 nM	71%
Cc1nc(-c2cc(-c3cc(F)c(CO)c(S(C)(=O)=O)c3)ccc2-n2nc(C(F)(F)F)cc2C)c(-c2ccc(OC(F)(F)F)cc2)o1 [Example 386, (3-fluoro-4′-(5-methyl-3-(trifluoromethyl)-1H-pyrazol-1-yl)-3′-(2-methyl-5-(4-(trifluoromethoxy)phenyl)oxazol-4-yl)-5-(methylsulfonyl)biphenyl-4-yl)methanol]	34 nM	86%
Cc1nc(-c2cc(-c3ccc(CO)c(S(C)(=O)=O)c3)ccc2-n2nc(C(F)(F)F)cc2C)c(-c2ccc(OC(F)(F)F)cc2)o1 [Example 387, (4′-(5-methyl-3-(trifluoromethyl)-1H-pyrazol-1-yl)-3′-(2-methyl-5-(4-(trifluoromethoxy)phenyl)oxazol-4-yl)-3-(methylsulfonyl)biphenyl-4-yl)methanol]	82 nM	79%
Cc1nc(-c2cc(-c3cccc(S(C)(=O)=O)c3)ccc2-n2nc(C(F)(F)F)cc2C)c(-c2ccc3c(c2)OC(F)(F)O3)o1 [Example 388, 5-(2,2-difluorobenzo[d][1,3]dioxol-5-yl)-2-methyl-4-(4-(5-methyl-3-(trifluoromethyl)-1H-pyrazol-1-yl)-3′-(methylsulfonyl)biphenyl-3-yl)oxazole]	9 nM	78%
Cc1nc(-c2cc(-c3cc(F)c(CO)c(S(C)(=O)=O)c3)ccc2-n2nc(C(F)(F)F)cc2C)c(-c2ccc3c(c2)OC(F)(F)O3)o1 [Example 389, (3′-(5-(2,2-difluorobenzo[d][1,3]dioxol-5-yl)-2-methyloxazol-4-yl)-3-fluoro-4′-(5-methyl-3-(trifluoromethyl)-1H-pyrazol-1-yl)-5-(methylsulfonyl)biphenyl-4-yl)methanol]	7 nM	84%
Cc1nc(-c2cc(-c3ccc(CO)c(S(C)(=O)=O)c3)ccc2-n2nc(C(F)(F)F)cc2C)c(-c2ccc3c(c2)OC(F)(F)O3)o1 [Example 390, (3′-(5-(2,2-difluorobenzo[d][1,3]dioxol-5-yl)-2-methyloxazol-4-yl)-4′-(5-methyl-3-(trifluoromethyl)-1H-pyrazol-1-yl)-3-(methylsulfonyl)biphenyl-4-yl) methanol]	10 nM	72%
Cc1cc(C(F)(F)F)n(-c2ccc(-c3cc(F)c(CO)c(S(C)(=O)=O)c3)cc2-c2nc(C)oc2-c2ccc(OC(F)F)cc2)n1 [Example 391, (3′-(5-(4-(difluoromethoxy)phenyl)-2-methyloxazol-4-yl)-3-fluoro-4′-(3-methyl-5-(trifluoromethyl)-1H-pyrazol-1-yl)-5-(methylsulfonyl)biphenyl-4-yl)methanol]	165 nM	56%
Cc1nc(-c2cc(-c3ccc(CO)c(S(C)(=O)=O)c3)ccc2-n2nc(C(F)(F)F)cc2C)c(-c2ccc(OC(F)F)cc2)o1 [Example 392, (3′-(5-(4-(difluoromethoxy)phenyl)-2-methyloxazol-4-yl)-4′-(5-methyl-3-(trifluoromethyl)-1H-pyrazol-1-yl)-3-(methylsulfonyl)biphenyl-4-yl)methanol]	12 nM	71%
Cc1cc(C(F)(F)F)n(-c2ccc(-c3cccc(S(C)(=O)=O)c3)cc2-c2nc(C)oc2-c2ccc(OC(F)F)cc2)n1 [Example 393, 5-(4-(difluoromethoxy)phenyl)-2-methyl-4-(4-(3-methyl-5-(trifluoromethyl)-1H-pyrazol-1-yl)-3′-(methylsulfonyl)biphenyl-3-yl)oxazole]	744 nM	40%
Cc1nc(-c2cc(-c3cccc(S(C)(=O)=O)c3)ccc2-n2ccc(C(F)(F)F)n2)c(-c2ccc(OC(F)F)nc2)o1 [Example 394, 5-(6-(difluoromethoxy)pyridin-3-yl)-2-methyl-4-(3′-(methylsulfonyl)-4-(3-(trifluoromethyl)-1H-pyrazol-1-yl)biphenyl-3-yl)oxazole]	16 nM	97%
Cc1nc(-c2cc(-c3cc(F)c(CO)c(S(C)(=O)=O)c3)ccc2-n2ccc(C(F)(F)F)n2)c(-c2ccc(OC(F)F)nc2)o1 [Example 395, (3′-(5-(6-(difluoromethoxy)pyridin-3-yl)-2-methyloxazol-4-yl)-3-fluoro-5-(methylsulfonyl)-4′-(3-(trifluoromethyl)-1H-pyrazol-1-yl)biphenyl-4-yl)methanol]	11 nM	83%
Cc1nc(-c2cc(-c3cc(F)c(CO)c(S(C)(=O)=O)c3)ccc2-n2ccc(C(F)(F)F)n2)c(-c2ccc(Cl)c(OC(F)F)c2)o1 [Example 396, (3′-(5-(4-chloro-3-(difluoromethoxy)phenyl)-2-methyloxazol-4-yl)-3-fluoro-5-(methylsulfonyl)-4′-(3-(trifluoromethyl)-1H-pyrazol-1-yl)biphenyl-4-yl)methanol]	90 nM	67%
Cc1nc(-c2cc(-c3cccc(S(C)(=O)=O)c3)ccc2-n2ccc(C(F)(F)F)n2)c(-c2ccc(OC(F)F)c(Cl)c2)o1 [Example 397, 5-(3-chloro-4-(difluoromethoxy)phenyl)-2-methyl-4-(3′-(methylsulfonyl)-4-(3-(trifluoromethyl)-1H-pyrazol-1-yl)biphenyl-3-yl)oxazole]	194 nM	68%
CC(C)c1nc(-c2cc(-c3cc(F)c(CO)c(S(C)(=O)=O)c3)ccc2-n2ccc(C(F)(F)F)n2)c(-c2ccc(OC(F)(F)F)cc2)o1 [Example 398, (3-fluoro-3′-(2-isopropyl-5-(4-(trifluoromethoxy)phenyl)oxazol-4-yl)-5-(methylsulfonyl)-4′-(3-(trifluoromethyl)-1H-pyrazol-1-yl)biphenyl-4-yl)methanol]	38 nM	63%
CC(C)c1nc(-c2cc(-c3cccc(S(C)(=O)=O)c3)ccc2-n2ccc(C(F)(F)F)n2)c(-c2ccc(OC(F)(F)F)cc2)o1 [Example 399, 2-isopropyl-4-(3′-(methylsulfonyl)-4-(3-(trifluoromethyl)-1H-pyrazol-1-yl)biphenyl-3-yl)-5-(4-(trifluoromethoxy)phenyl)oxazole]	200 nM	60%
Cc1nc(-c2cc(-c3cc(F)c(CO)c(S(C)(=O)=O)c3)ccc2-n2ccc(C(F)(F)F)n2)c(-c2ccc(Cl)cc2)o1 [Example 400, (3′-(5-(4-chlorophenyl)-2-methyloxazol-4-yl)-3-fluoro-5-(methylsulfonyl)-4′-(3-(trifluoromethyl)-1H-pyrazol-1-yl)biphenyl-4-yl)methanol]	38 nM	53%
Cc1nc(-c2cc(-c3cccc(S(C)(=O)=O)c3)ccc2-n2ccc(C(F)(F)F)n2)c(-c2ccc(Cl)cc2)o1 [Example 401, 5-(4-chlorophenyl)-2-methyl-4-(3′-(methylsulfonyl)-4-(3-(trifluoromethyl)-1H-pyrazol-1-yl)biphenyl-3-yl)oxazole]	131 nM	76%
CS(=O)(=O)c1cc(-c2ccc(-n3ccc(C(F)(F)F)n3)c(-c3nc(C4CC4)oc3-c3ccc(OC(F)(F)F)cc3)c2)cc(F)c1CO [Example 402, (3′-(2-cyclopropyl-5-(4-(trifluoromethoxy)phenyl)oxazol-4-yl)-3-fluoro-5-(methylsulfonyl)-4′-(3-(trifluoromethyl)-1H-pyrazol-1-yl)biphenyl-4-yl)methanol]	14 nM	67%
CS(=O)(=O)c1cccc(-c2ccc(-n3ccc(C(F)(F)F)n3)c(-c3nc(C4CC4)oc3-c3ccc(OC(F)(F)F)cc3)c2)c1 [Example 403, 2-cyclopropyl-4-(3′-(methylsulfonyl)-4-(3-(trifluoromethyl)-1H-pyrazol-1-yl)biphenyl-3-yl)-5-(4-(trifluoromethoxy)phenyl)oxazole]	82 nM	62%
Cc1nc(-c2cc(-c3cccc(C(C)(C)C(N)=O)c3)ccc2-n2nc(C(F)(F)F)cc2Cl)c(-c2ccc(OC(F)(F)F)cc2)o1 [Example 404, 2-(4′-(5-chloro-3-(trifluoromethyl)-1H-pyrazol-1-yl)-3′-(2-methyl-5-(4-(trifluoromethoxy)phenyl)oxazol-4-yl)biphenyl-3-yl)-2-methylpropanamide]	185 nM	67%

From US9751869B2, “LXR modulators” (BRISTOL-MYERS SQUIBB COMPANY, priority 2013, dated 2017)
